Measurements published in patent US20120244230A1, “POLYVALENT POLYNUCLEOTIDE NANOPARTICLE CONJUGATES AS DELIVERY VEHICLES FOR A CHEMOTHERAPEUTIC AGENT” (priority 2009, published 2012).

Tests used:
PC3 cells = experiment: MTT cytotoxicity assay, PC3
Protocol: (§1) Human cervical cancer HeLa, human osteosarcoma U2OS, human prostate PC3 cell lines were procured from the ATCC. A549 lung carcinoma cells were obtained from Prof. David E. Root, Whitehead Institute for Biomedical Research. HeLa, U2OS, and A549 Cells were grown at 37° C. in 5% CO2 in DMEM medium supplemented with 10% fetal bovine serum and 1% penicillin/streptomycin. PC3 cells were grown at 37° C. in 5% CO2 in RPMI supplemented with 10% fetal bovine serum and 1% penicillin/streptomycin. Cells were passed every 3 to 4 days and restarted from frozen stocks upon reaching pass number 20.
(§2) In order to investigate the efficacy of Pt-DNA-Au NPs, their ability to kill cancer cells of various origin was measured. […] Cells were seeded on a 96 well plate in 100 μL media and incubated for 24 hours. The cells were then treated with Pt-DNA-Au NP, 1, or cisplatin, separately at varying concentrations and incubated for 72 hours at 37° C. Medium was removed, cells were washed with PBS and then incubated with cell culture medium containing 20% 3-(4,5-dimethylthiazol-2-yl)-2,5-diphenyltetrazolium bromide (MTT). […] Cells were further incubated overnight and the absorbance was measured at 620 nm using a BioTek Synergy HT multi-detection microplate plate reader. […]

U2OS cells = experiment: MTT cytotoxicity assay, U2OS; format: cell-based, human; settings: 72 hour treatment
Protocol: as §1, §2

A549 cells = system: A549 cells
Protocol: as §1, §2

[1] = Cyclic voltammetry, reduction potential of the Pt(IV) complex; format: physicochemical; settings: Ag/AgCl reference, 25° C.
Protocol: The conjugate was designed to release a cytotoxic dose of cisplatin upon intracellular reduction. An ideal Pt(IV) complex should be sufficiently stable to travel through the blood stream until it reaches a tumor cell without decomposition. Once inside the cell, however, it should have an appropriate reduction potential such that it will be reduced and release its cytotoxic payload. Electrochemical measurements were made at 25° C. on a EG&G PAR Model 263 Potentiostat/Galvanostat with electrochemical analysis software 270 and a three electrode set-up comprising a glassy carbon working electrode, platinum wire auxiliary electrode and a Ag/AgCl reference electrode. The electrochemical data were uncorrected for junction potentials. KCl was used as a supporting electrolyte.

`N.N.[Cl][Pt][Cl]` [cisplatin, cis-diamminedichloroplatinum(II), reference compound] gave an IC50 (PC3 cells; PC3 cells, 72 hour treatment, MTT) of 4.6 µM and an IC50 (U2OS cells) of 5.1 µM.
For `[NH2][Pt]([NH2])([OH])([Cl])([Cl])[O]C(=O)CCC(=O)O` [Compound 1, c,c,t-[Pt(NH3)2Cl2(OH)(O2CCH2CH2CO2H)]], the “cytotoxicity (in words)” value (PC3 cells) was “did not show any significant killing”, the “cytotoxicity (in words)” value (A549 cells) was “did not show any significant killing” and the reduction potential ([1]; pH 6.0, phosphate buffer-0.1 M KCl) was −0.42 V. For the same molecule, the reduction potential ([1]; pH 7.4, phosphate buffer-0.1 M KCl, extrapolated to 0.0 mV s-1 scan rate) was −0.49 V.
